Test results from patent publication US8541607B2, “Disulfide, sulfide, sulfoxide, and sulfone derivatives of cyclic sugars and uses thereof” (Lacer, S.A., priority 2003, dated 2013).

Test system: Rats, left carotid artery thrombosis (FeCl3)
Experiment: In vivo synergistic antithrombotic effect, FeCl3 carotid artery thrombosis, single drugs and combinations
Design: species or system rat
Settings: Compound 12 22.3 mg/Kg, oral, acute the day of study
Protocol: The method used is substantially the same as described by Kurz (Kurz K. D., at al., Thromb. Res. 1990, 60: 269-280) and modified by Feuerstein (Feuerstein G. Z., et al., Artherioscler, Thromb. Vasc. Biol. 1999, 19: 2554-25562). […]
Forty-five minutes after dosing administration, rats were anaesthetized with sodium pentobarbital (40 mg/kg, i.p.) and they were placed later dorsally on a heated (37° C.) surgical board.
The left carotid artery was isolated and a Parafilm M sheet (7×20 mm, American National Can) was placed under it. An electromagnetic sounding of flow (Transonic Systems Inc.) was placed on the artery to measure blood flow.
Sixty minutes after product administration, a paper patch saturated with FeCl3 solution (70%) was placed (and not removed for the whole duration of the experiment) on the left carotid artery downstream from the sounding of flow to initiate thrombosis. The blood flow was controlled during the 60 min later to the application of the patch in the artery.
The vessel was considered totally occluded by the thrombus formed when no blood flow was detected (0.0 ml/min). In this model, occlusive thrombus formation usually takes place within 15 to 20 minutes in non-treated animals.
The fractional product concept was used to identify synergy between the compounds. In accordance with this concept, if we consider the full protection of the animal as:
[formula] where A is the rate of animals with thrombotic occlusion in treated group; and B is the rate of animals with thrombotic occlusion in the control group.
For two drugs that act of independent way:
[formula] where A1 is the rate of animals with thrombotic occlusion in the treatment group A1; A2 is the rate of animals with thrombotic occlusion in the treatment group A2; and B is the rate of animals with thrombotic occlusion in the control group
If the protection obtained with the combination of the drugs is higher than the fractional inhibition for two compounds acting independently then synergism is considered to occur.
The results are shown in table 14 and are expressed as rate of animals with thrombotic occlusion in each group.

CC(=O)S[C@H]1CO[C@H]2[C@@H]1OC[C@H]2O[N+](=O)[O-] [(12), 2-acetylthio-isosorbide-5-mononitrate]
% of animals protected: (50%) | Rate of animals with thrombotic occlusion (control 1): 0.5
